According to patent publication US7001608B2, “Artificial synapse chip interface for electronic prosthetic retina” (The Board of Trustees of the Lealand Stanford Junior …, priority 2001, dated 2006):

Assay: Gramicidin D conductance change in lipid bilayer across silicon nitride aperture
Assay type: biochemical
Conditions: 5 to 20 μl of 2 mg/ml gD in ethanol to each bath; within minutes; capacitance remained constant; ethanol alone no effect
Source text: Lipid bilayers were formed by the method of Montal and Mueller (1972). In practicing the Langmuir-Blodgett technique, one raises two lipid monolayers across an aperture, allowing the lipids to align their hydrophobic tail portions across the aperture so as to form a lipid bilayer. Because of the hydrophobic nature of the lipid tails, in order to form stable bilayers the surface of a BSP must also be hydrophobic. If the substrate is hydrophobic, the lipids can smoothly transition from coating the substrate to spanning the aperture. To reverse the wetting properties of the naturally hydrophilic silicon nitride, the silicon nitride was coated with an alkylsilane (octyltrichlorosilane). Application of this coating was quite simple and very effective. It was not found to be possible to form a bilayer with untreated devices. Use of longer carbon chain silanes or alternative materials to make the surface even more hydrophobic would further increase bilayer stability.
For smaller apertures, it was more difficult to observe the capacitance change over the background. In this case, membrane-bound proteins that affect the electrical properties of the bilayer, such as carriers and ion channels, offered the best proof of the formation of a bilayer. The ion channel peptide Gramicidin D (gD), was chosen for ease of use and large conductance change. […]

## Gramicidin D [gD]
  conductance of the bilayer: dramatically increased
